Measurements from PMC9516332 (Frontiers in Oncology, 2022).
Where two headings read alike, the source gives them in different places.

Assays:
[1] = molecular target: panel of 255 wild-type kinases (Homo sapiens, UniProt O75582); assay: Kinase panel profiling at 1 µmol/L (MSA or IMAP), percentage inhibition; type: biochemical; details: MSK1; 1 µmol/L single concentration; read-out: %-inhibition, MSK1
[2] = molecular target: panel of 255 wild-type kinases (Homo sapiens, UniProt P22607); assay: as above; type: biochemical; details: kinase FGFR3; 1 µmol/L single concentration; read-out: %-inhibition at 1 µmol/L, FGFR3
[3] = molecular target: panel of 255 wild-type kinases (Homo sapiens, UniProt P45983); assay: as above; type: biochemical; details: kinase JNK1; 1 µmol/L single concentration; read-out: %-inhibition at 1 µmol/L, JNK1
[4] = molecular target: panel of 255 wild-type kinases (Homo sapiens, UniProt P49760); assay: as above; type: biochemical; details: kinase CLK2; 1 µmol/L single concentration; read-out: %-inhibition at 1 µmol/L, CLK2
[5] = molecular target: panel of 255 wild-type kinases (Homo sapiens, UniProt P50613); assay: as above; type: biochemical; details: CDK7/CycH/MAT1 kinase assay; 1 µmol/L single concentration; read-out: %-inhibition CDK7/CycH/MAT1
[6] = molecular target: panel of 255 wild-type kinases (Homo sapiens, UniProt Q00526); assay: as above; type: biochemical; details: CDK3/CycE1 kinase assay; 1 µmol/L single concentration; read-out: %-inhibition CDK3/CycE1
[7] = molecular target: panel of 255 wild-type kinases (Homo sapiens, UniProt Q13177); assay: as above; type: biochemical; details: PAK2; 1 µmol/L single concentration; read-out: %-inhibition, PAK2
[8] = molecular target: panel of 255 wild-type kinases (Homo sapiens, UniProt Q96RG2); assay: as above; type: biochemical; details: PASK; 1 µmol/L single concentration; read-out: %-inhibition, PASK
[9] = molecular target: panel of 255 wild-type kinases (Homo sapiens, UniProt Q9HBH9); assay: as above; type: biochemical; details: MNK2; 1 µmol/L single concentration; read-out: %-inhibition, MNK2
AP-1060 (ETV6-NTRK3) = assay: Cell viability assay
134 cancer cell lines = assay: Cell viability assay (ATPlite, 72 hours), IC50 on cancer cell line panel

CO[C@]1(C(=O)N[C@@H](C)c2ccc(-n3cc(F)cn3)nc2)CC[C@H](c2nc(C)cc(Nc3cc(C)[nH]n3)n2)CC1 [pralsetinib]
inhibition at 1 µM [1]: 10%
inhibition at 1 µM [2]: 96%
inhibition at 1 µM [3]: -5%
inhibition at 1 µM [4]: 9.51%
inhibition at 1 µM [5]: 19%
inhibition at 1 µM [6]: 42%
inhibition at 1 µM [7]: 16%
inhibition at 1 µM [8]: -2.38%
inhibition at 1 µM [9]: 2%
higher sensitivity of AP-1060 to pralsetinib compared to selpercatinib (AP-1060 (ETV6-NTRK3); cell viability): ~20 fold
IC50 (AP-1060 (ETV6-NTRK3); read-out: IC50 in cell proliferation assay): 0.206 µM
IC50 (134 cancer cell lines; HEC-6, read-out: IC50 in cell proliferation assay, HEC-6 cell line (EGFR p.A289V)): 16.9 µM
IC50 (134 cancer cell lines; Homo sapiens, 769-P, read-out: IC50 in cell proliferation assay, cell line 769-P): 3.15 µM
IC50 (134 cancer cell lines; Homo sapiens, 786-0, read-out: IC50 in cell proliferation assay, cell line 786-O): 3.96 µM
IC50 (134 cancer cell lines; Homo sapiens, A 172, read-out: IC50 in cell proliferation assay, cell line A-172): 0.758 µM
IC50 (134 cancer cell lines; Homo sapiens, A204, read-out: IC50 in cell proliferation assay, cell line A-204): 0.679 µM
IC50 (134 cancer cell lines; Homo sapiens, A498, read-out: IC50 in cell proliferation assay, cell line A-498): 8.94 µM
IC50 (134 cancer cell lines; Homo sapiens, A549, read-out: IC50 in cell proliferation assay, cell line A-549): 8.17 µM
IC50 (134 cancer cell lines; Homo sapiens, A704, read-out: IC50 in cell proliferation assay, cell line A-704): 2.49 µM
IC50 (134 cancer cell lines; Homo sapiens, A-375, read-out: IC50 in cell proliferation assay, cell line A-375 (BRAF p.V600E)): 12.1 µM
IC50 (134 cancer cell lines; Homo sapiens, A-427, read-out: IC50 in cell proliferation assay, cell line A-427): 1.1 µM
IC50 (134 cancer cell lines; Homo sapiens, ACHN, read-out: IC50 in cell proliferation assay, cell line ACHN): 2.08 µM
IC50 (134 cancer cell lines; Homo sapiens, AN3-CA, read-out: IC50 in cell proliferation assay, cell line AN3-CA (FGFR2 p.N549K)): 0.9 µM
IC50 (134 cancer cell lines; Homo sapiens, ASPC1, read-out: IC50 in cell proliferation assay, cell line AsPC-1): 25.9 µM
IC50 (134 cancer cell lines; Homo sapiens, AU565, read-out: IC50 in cell proliferation assay, cell line AU565 (ERBB2 amplification)): 8.92 µM
IC50 (134 cancer cell lines; Homo sapiens, BT-20, read-out: IC50 in cell proliferation assay, cell line BT-20): 12.6 µM
IC50 (134 cancer cell lines; Homo sapiens, BT-474, read-out: IC50 in cell proliferation assay, cell line BT-474 (ERBB2 amplification)): > 31.6 µM
IC50 (134 cancer cell lines; Homo sapiens, BT-549, read-out: IC50 in cell proliferation assay, cell line BT-549): 1.93 µM
IC50 (134 cancer cell lines; Homo sapiens, BXPC-3, read-out: IC50 in cell proliferation assay, cell line BxPC-3): 3.46 µM
IC50 (134 cancer cell lines; Homo sapiens, C-33-A, read-out: IC50 in cell proliferation assay, cell line C-33 A): 0.981 µM
IC50 (134 cancer cell lines; Homo sapiens, CAL-27, read-out: IC50 in cell proliferation assay, cell line CAL-27): 1.95 µM
IC50 (134 cancer cell lines; Homo sapiens, CCF-STTG1, read-out: IC50 in cell proliferation assay, cell line CCF-STTG1): 5.77 µM
IC50 (134 cancer cell lines; Homo sapiens, CCRF-CEM, read-out: IC50 in cell proliferation assay, cell line CCRF-CEM): 13.3 µM
IC50 (134 cancer cell lines; Homo sapiens, COLO 205, read-out: IC50 in cell proliferation assay, cell line COLO 205 (BRAF p.V600E)): 12.9 µM
IC50 (134 cancer cell lines; Homo sapiens, COLO-829, read-out: IC50 in cell proliferation assay, cell line COLO 829 (BRAF p.V600E)): 24.7 µM
IC50 (134 cancer cell lines; Homo sapiens, DLD-1, read-out: IC50 in cell proliferation assay, cell line DLD-1): 9.98 µM
IC50 (134 cancer cell lines; Homo sapiens, DU-4475, read-out: IC50 in cell proliferation assay, cell line DU4475 (BRAF p.V600E)): 11.8 µM
IC50 (134 cancer cell lines; Homo sapiens, Daoy, read-out: IC50 in cell proliferation assay, cell line Daoy): 10.1 µM
IC50 (134 cancer cell lines; Homo sapiens, DoTc2-4510, read-out: IC50 in cell proliferation assay, cell line DoTc2 4510): 3.5 µM
IC50 (134 cancer cell lines; Homo sapiens, EOL1, read-out: IC50 in cell proliferation assay, cell line EoL-1 (FIP1L1-PDGFRA)): 0.016 µM
IC50 (134 cancer cell lines; Homo sapiens, FaDu, read-out: IC50 in cell proliferation assay, cell line FaDu): 3.65 µM
IC50 (134 cancer cell lines; Homo sapiens, G-361, read-out: IC50 in cell proliferation assay, cell line G-361 (BRAF p.V600E)): 17.6 µM
IC50 (134 cancer cell lines; Homo sapiens, HCC827, read-out: IC50 in cell proliferation assay, cell line HCC827 (EGFR exon19del)): 3.01 µM
IC50 (134 cancer cell lines; Homo sapiens, HCC4006, read-out: IC50 in cell proliferation assay, cell line HCC4006 (EGFR exon19del)): 5.93 µM
IC50 (134 cancer cell lines; Homo sapiens, HCT-15, read-out: IC50 in cell proliferation assay, cell line HCT 15): 5.73 µM
IC50 (134 cancer cell lines; Homo sapiens, HCT-116, read-out: IC50 in cell proliferation assay, cell line HCT 116): 10.3 µM
IC50 (134 cancer cell lines; Homo sapiens, HEC-1, read-out: IC50 in cell proliferation assay, HEC-1 cell line): 2.32 µM
IC50 (134 cancer cell lines; Homo sapiens, HEC-1B, read-out: IC50 in cell proliferation assay, HEC-1-B cell line (EGFR p.A864V)): 0.608 µM
IC50 (134 cancer cell lines; Homo sapiens, HL-60, read-out: IC50 in cell proliferation assay, HL-60 cell line): 25.2 µM
IC50 (134 cancer cell lines; Homo sapiens, HT, read-out: IC50 in cell proliferation assay, HT cell line): > 31.6 µM
IC50 (134 cancer cell lines; Homo sapiens, HT-1080, read-out: IC50 in cell proliferation assay, HT-1080 cell line): 8.1 µM
IC50 (134 cancer cell lines; Homo sapiens, Hs746T, read-out: IC50 in cell proliferation assay, Hs 746.T cell line (MET exon14skip + amplification)): 9.64 µM
IC50 (134 cancer cell lines; Homo sapiens, Hs-578T, read-out: IC50 in cell proliferation assay, Hs 578T cell line): 1.15 µM
IC50 (134 cancer cell lines; Homo sapiens, HuTu80, read-out: IC50 in cell proliferation assay, HuTu 80 cell line): 0.864 µM
IC50 (134 cancer cell lines; Homo sapiens, J82, read-out: IC50 in cell proliferation assay, J82 cell line): 1.74 µM
IC50 (134 cancer cell lines; Homo sapiens, Jurkat E6.1, read-out: IC50 in cell proliferation assay, Jurkat E6.1 cell line): 11.4 µM
IC50 (134 cancer cell lines; Homo sapiens, K562, read-out: IC50 in cell proliferation assay, K-562 cell line): 5.58 µM
IC50 (134 cancer cell lines; Homo sapiens, KATO III, read-out: IC50 in cell proliferation assay, KATO III cell line (FGFR2 amplification)): 0.273 µM
IC50 (134 cancer cell lines; Homo sapiens, KG-1, read-out: IC50 in cell proliferation assay, KG-1 cell line (FGFR1OP2-FGFR1)): 0.131 µM
IC50 (134 cancer cell lines; Homo sapiens, KLE, read-out: IC50 in cell proliferation assay, KLE cell line): 1.82 µM
IC50 (134 cancer cell lines; Homo sapiens, KMS-11, read-out: IC50 in cell proliferation assay, KMS-11 cell line (FGFR3 p.Y373C)): 0.394 µM
IC50 (134 cancer cell lines; Homo sapiens, KU812, read-out: IC50 in cell proliferation assay, Ku812 cell line): 3.74 µM
IC50 (134 cancer cell lines; Homo sapiens, Kasumi 1, read-out: IC50 in cell proliferation assay, Kasumi-1 cell line (KIT p.N822K)): 0.184 µM
IC50 (134 cancer cell lines; Homo sapiens, LC-2-ad, read-out: IC50 in cell proliferation assay, LC-2/ad cell line (CCDC6-RET)): 0.054 µM
IC50 (134 cancer cell lines; Homo sapiens, LNCaP-Clone-FGC, read-out: IC50 in cell proliferation assay, LNCaP clone FGC cell line): > 31.6 µM
IC50 (134 cancer cell lines; Homo sapiens, LS174T, read-out: IC50 in cell proliferation assay, LS174T cell line): 2.29 µM
IC50 (134 cancer cell lines; Homo sapiens, LS-411N, read-out: IC50 in cell proliferation assay, LS411N cell line (BRAF p.V600E)): 25.6 µM
IC50 (134 cancer cell lines; Homo sapiens, LoVo, read-out: IC50 in cell proliferation assay, LoVo cell line): 1.52 µM
IC50 (134 cancer cell lines; Homo sapiens, MCF7, read-out: IC50 in cell proliferation assay, MCF-7 cell line): > 31.6 µM
IC50 (134 cancer cell lines; Homo sapiens, MDA-MB-231, read-out: IC50 in cell proliferation assay, MDA-MB-231 cell line): 0.555 µM
IC50 (134 cancer cell lines; Homo sapiens, MDA-MB-453, read-out: IC50 in cell proliferation assay, MDA-MB-453 cell line): > 31.6 µM
